Activity calls are given as the source filed them. No rule for the calls is given here.
Test system: rodent carcinogenicity bioassays, tumor incidence
Experiment: CCRIS carcinogenicity studies
How it was run: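 NCI-built, expert-reviewed records of carcinogenicity and related test outcomes (mutagenicity, tumor promotion/inhibition) compiled from published and report sources, historical span 1985-2011, not updated.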

In the case of Cc1cc(O)c2c(c1)C(=O)c1cc(O)cc(O)c1C2=O, the carcinogen call (Species: MOUSE, Strain/Sex: B6C3F1/FEMALE, Route: ORAL, Dose: 0, 312, 625, 1250 PPM IN DIET FOR 105 WK (STUDY DURATION: 105 WK), Dose: 0, 312, 625, 1250 PPM IN DIET FOR 105 WK (STUDY DURATION: 105 WK)) was “inactive; negative”, the carcinogen call (Species: MOUSE, Strain/Sex: B6C3F1/MALE, Route: ORAL, Dose: 0, 160, 312, 625 PPM IN DIET FOR 105 WK (STUDY DURATION: 105 WK), Dose: 0, 160, 312, 625 PPM IN DIET FOR 105 WK (STUDY DURATION: 105 WK), Tumor Site: Type of Lesion: KIDNEY: RENAL TUBULE ADENOMA, RENAL TUBULE CARCINOMA, RENAL TUBULE ADENOMA OR CARCINOMA) was “equivocal” and the carcinogen call (Species: RAT, Strain/Sex: F344/FEMALE, Route: ORAL, Dose: 0, 280, 830, 2500 PPM IN DIET FOR 105 WK (STUDY DURATION: 105 WK), Dose: 0, 280, 830, 2500 PPM IN DIET FOR 105 WK (STUDY DURATION: 105 WK), Tumor Site: Type of Lesion: ZYMBAL GLAND: CARCINOMA) was “equivocal”. For the same compound, the carcinogen call (Species: RAT, Strain/Sex: F344/MALE, Route: ORAL, Dose: 0, 280, 830, 2500 PPM IN DIET FOR 105 WK (STUDY DURATION: 105 WK), Dose: 0, 280, 830, 2500 PPM IN DIET FOR 105 WK (STUDY DURATION: 105 WK)) was “inactive; negative”.

With c1ccc2c(c1)[nH]c1ccccc12 the carcinogen call (Species: MOUSE, Strain/Sex: B6C3F1/FEMALE, Route: ORAL, Dose: 0.15, 0.3, 0.6% IN DIET FOR 96 WK, Dose: 0.15, 0.3, 0.6% IN DIET FOR 96 WK, Tumor Site: Type of Lesion: LIVER: HEPATOCELLULAR CARCINOMA) was “active; positive”, the carcinogen call (Species: MOUSE, Strain/Sex: B6C3F1/MALE, Route: ORAL, Dose: 0.15, 0.3, 0.6% IN DIET FOR 96 WK, Dose: 0.15, 0.3, 0.6% IN DIET FOR 96 WK, Tumor Site: Type of Lesion: FORESTOMACH: PAPILLOMA, SQUAMOUS CELL CARCINOMA, LIVER: HEPATOCELLULAR CARCINOMA) was “active; positive” and the carcinogen call (Species: MOUSE, Strain/Sex: CD-1/FEMALE, Route: INTRAPERITONEAL, Dose: 0, 1.75 UMOL/MOUSE (TOTAL DOSE) ADMINISTERED DURING DAYS 1, 8, AND 15 OF LIFE (STUDY DURATION: 52 WK)) was “inactive; negative”. For the same compound, the carcinogen call (Species: MOUSE, Strain/Sex: CD-1/MALE, Route: INTRAPERITONEAL, Dose: 0, 1.75 UMOL/MOUSE (TOTAL DOSE) ADMINISTERED DURING DAYS 1, 8, AND 15 OF LIFE (STUDY DURATION: 52 WK)) was “inactive; negative”.

In the case of CCCNN, the carcinogen call (Species: MOUSE, Strain/Sex: SWISS/FEMALE, Route: ORAL, Dose: 0, 0.025% SOLUTION IN DRINKING WATER DAILY FOR LIFE FOR AND AVERAGE DAILY INTAKE OF 0, 3.0 MG (STUDY DURATION: 100 WK), Dose: 0, 0.025% SOLUTION IN DRINKING WATER DAILY FOR LIFE FOR AND AVERAGE DAILY INTAKE OF 0, 3.0 MG (STUDY DURATION: 100 WK), Tumor Site: Type of Lesion: LUNG: ADENOMA, LUNG: ADENOMA OR ADENOCARCINOMA) was “active; positive” and the carcinogen call (Species: MOUSE, Strain/Sex: SWISS/MALE, Route: ORAL, Dose: 0, 0.025% SOLUTION IN DRINKING WATER DAILY FOR LIFE FOR AN AVERAGE DAILY INTAKE OF 0, 2.9 MG (STUDY DURATION: 100 WK), Dose: 0, 0.025% SOLUTION IN DRINKING WATER DAILY FOR LIFE FOR AN AVERAGE DAILY INTAKE OF 0, 2.9 MG (STUDY DURATION: 100 WK), Tumor Site: Type of Lesion: LUNG: ADENOMA, LUNG: ADENOMA OR ADENOCARCINOMA) was “active; positive”.

For O=Cc1ccccc1, the carcinogen call (Species: MOUSE, Strain/Sex: B6C3F1/FEMALE, Route: GAVAGE, Dose: 0, 300, 600 MG/KG IN CORN OIL 5 D/WK FOR 103 WK (STUDY DURATION: 104 WK), Dose: 0, 300, 600 MG/KG IN CORN OIL 5 D/WK FOR 103 WK (STUDY DURATION: 104 WK), Tumor Site: Type of Lesion: FORESTOMACH: SQUAMOUS PAPILLOMA) was “active; positive”, the carcinogen call (Species: MOUSE, Strain/Sex: B6C3F1/MALE, Route: GAVAGE, Dose: 0, 200, 400 MG/KG IN CORN OIL 5 D/WK FOR 104 WK (STUDY DURATION: 105 WK), Dose: 0, 200, 400 MG/KG IN CORN OIL 5 D/WK FOR 104 WK (STUDY DURATION: 105 WK), Tumor Site: Type of Lesion: FORESTOMACH: SQUAMOUS PAPILLOMA) was “active; positive” and the carcinogen call (Species: RAT, Strain/Sex: F344/FEMALE, Route: GAVAGE, Dose: 0, 200, 400 MG/KG IN CORN OIL 5 D/WK FOR 103 WK (STUDY DURATION: 105 WK), Dose: 0, 200, 400 MG/KG IN CORN OIL 5 D/WK FOR 103 WK (STUDY DURATION: 105 WK)) was “inactive; negative”. For the same compound, the carcinogen call (Species: RAT, Strain/Sex: F344/MALE, Route: GAVAGE, Dose: 0, 200, 400 MG/KG IN CORN OIL 5 D/WK FOR 103 WK (STUDY DURATION: 105 WK), Dose: 0, 200, 400 MG/KG IN CORN OIL 5 D/WK FOR 103 WK (STUDY DURATION: 105 WK)) was “inactive; negative”.

In the case of O=C(O)c1ccc(N=Nc2ccc(O)c(C(=O)O)c2)cc1, the carcinogen call (Species: MOUSE, Strain/Sex: NMRI/FEMALE, Route: ORAL, Dose: 0, 100, 300, 900 MG/KG BW/D IN DIET FOR 107 WK (HIGH DOSE INCREASED TO 1800 MG/KG BW FROM WK 21) (STUDY DURATION: 107 WK, Dose: 0, 100, 300, 900 MG/KG BW/D IN DIET FOR 107 WK (HIGH DOSE INCREASED TO 1800 MG/KG BW FROM WK 21) (STUDY DURATION: 107 WK) was “inactive; negative”, the carcinogen call (Species: MOUSE, Strain/Sex: NMRI/MALE, Route: ORAL, Dose: 0, 100, 300, 900 MG/KG BW/D IN DIET FOR 120 WK (HIGH DOSE INCREASED TO 1800 MG/KG BW FROM WK 21) (STUDY DURATION: 120 WK, Dose: 0, 100, 300, 900 MG/KG BW/D IN DIET FOR 120 WK (HIGH DOSE INCREASED TO 1800 MG/KG BW FROM WK 21) (STUDY DURATION: 120 WK) was “inactive; negative” and the carcinogen call (Species: RAT, Strain/Sex: SPRAGUE-DAWLEY/MALE, Route: ORAL, Dose: 0, 300, 900, 2700 MG/KG BW/D IN DIET FOR 118 WK (HIGH DOSE REDUCED TO 1800 MG/KG BW FROM WK 68) (STUDY DURATION: 118 WK), Dose: 0, 300, 900, 2700 MG/KG BW/D IN DIET FOR 118 WK (HIGH DOSE REDUCED TO 1800 MG/KG BW FROM WK 68) (STUDY DURATION: 118 WK)) was “inactive; negative”. The carcinogen call (Species: RAT, Strain/Sex: SPRAGUE/DAWLEY/FEMALE, Route: ORAL, Dose: 0, 300, 900, 2700 MG/KG BW/D IN DIET FOR 119 WK (HIGH DOSE REDUCED TO 1800 MG/KG BW FROM WK 68) (STUDY DURATION: 119 WK), Dose: 0, 300, 900, 2700 MG/KG BW/D IN DIET FOR 119 WK (HIGH DOSE REDUCED TO 1800 MG/KG BW FROM WK 68) (STUDY DURATION: 119 WK)) was “inactive; negative”.

In the case of Nc1ccc(Cc2ccc(N)c(Cl)c2)cc1Cl, the carcinogen call (Species: MOUSE, Route: ORAL, Tumor Site: Type of Lesion: BLOOD VESSELS, LIVER) was “active; positive”, the carcinogen call (Species: RAT, Route: ORAL, Tumor Site: Type of Lesion: LIVER, LUNG) was “active; positive” and the carcinogen call (Species: RAT, Route: SUBCUTANEOUS, Tumor Site: Type of Lesion: LIVER, LUNG) was “active; positive”. The carcinogen call (Species: RAT, Strain/Sex: STRAIN-CD/FEMALE, Route: ORAL, Dose: 0, 1000 PPM IN PROTEIN-ADEQUATE (23%) DIET FOR 2 YR (STUDY DURATION: 2 YR), Tumor Site: Type of Lesion: LUNG: ADENOCARCINOMA) was “active; positive”, the carcinogen call (Species: RAT, Strain/Sex: STRAIN-CD/FEMALE, Route: ORAL, Dose: 0, 1000 PPM IN PROTEIN-DEFICIENT (7%) DIET FOR 16 MO (STUDY DURATION: 16 MO), Tumor Site: Type of Lesion: LUNG: ADENOCARCINOMA, MAMMARY GLAND: ADENOCARCINOMA) was “active; positive” and the carcinogen call (Species: RAT, Strain/Sex: STRAIN-CD/MALE, Route: ORAL, Dose: 0, 1000 PPM IN PROTEIN-ADEQUATE (23%) DIET FOR 2 YR (STUDY DURATION: 2 YR), Tumor Site: Type of Lesion: LUNG: ADENOCARCINOMA) was “active; positive”. For the same compound, the carcinogen call (Species: RAT, Strain/Sex: STRAIN-CD/MALE, Route: ORAL, Dose: 0, 1000 PPM IN PROTEIN-DEFICIENT (7%) DIET FOR 16 MO (STUDY DURATION: 16 MO), Tumor Site: Type of Lesion: LUNG: ADENOCARCINOMA, LIVER: HEPATOCELLULAR ADENOMA, HEPATOCELLULAR CARCINOMA) was “active; positive”.

Source: PubChem BioAssay AID1259411 (Chemical Carcinogenesis Research Information System (CCRIS), 2018)
